Test results reported in US11766444B2, “Pharmaceutical composition for preventing or treating degenerative brain disorders including HDL-APOM-S1P as active ingredient” (Kyungpook National University Industry-Academic Cooperation …, priority 2017, dated 2023).

Legend:
amyloid-β = assay: Amyloid-β deposition in brain tissue (cerebral cortex), thioflavin S staining and immunofluorescence; format: in vivo, mouse; settings: APP/PS1 mice, vs 9-month-old untreated APP/PS1 mice
Description: (§1) Transgenic mice overexpressing hAPP695swe (APPswe) and presenilin-1M146V (PS1) mutations were used as mouse models of the Alzheimer's disease. These are mouse lines produced by GlaxoSmithKline (Harlow, UK) with the standard technology for C57BL background (Charles River, UK), which double heterozygote mutant mice (APP/PS1 tg mice) were produced by backcrossing APPswe mice with pure C57BL/6 backgrounds and crossing PS1 mice
(§2) After collecting blood from mice, the obtained blood was separated into erythrocytes and plasma by centrifugation. The separated erythrocytes are reacted with 10 uM sphingosine at 37° C. for 1 hour, and then reacted for 1 hour at 37° C. after mixing again with the separated plasma. […]
(§3) After fixing the cerebral (especially cortex) and hippocampus of mice with 4% paraformaldehyde, the immobilized tissues were incubated with 0.5% thioflavin S (Sigma-Aldrich) or anti-20G10 against Aβ42 (mouse, 1:1000), anti-G30 against Aβ40 (rabbit, 1:1000), anti-lba-1 (rabbit, 1:500, Wako), and anti-GFAP (rabbit, 1:500, DAKO), respectively. […] The sites were analyzed using a laser scanning confocal microscope or Olympus BX51 microscope equipped with Fluoview SV1000 imaging software (Olympus FV1000, Japan). Metamorph software (Molecular Devices) was used to quantify the percentage of area of stained area to area of total tissue. […]

astrocytes = assay: Activity of astrocytes (GFAP staining), neuroinflammatory response; format: in vivo, mouse; settings: APP/PS1 mice, brain tissue, vs untreated APP/PS1 mice
Description: as §1, §2, §3

APP/PS1 mice = assay: Morris water maze (MWM) test; format: in vivo, mouse; settings: 10 days training, probe trial day 11
Description: as §1
(§4) After collecting blood from mice, the obtained blood was separated into erythrocytes and plasma by centrifugation. The separated erythrocytes are reacted with 10 uM sphingosine at 37° C. for 1 hour, and then reacted for 1 hour at 37° C. after mixing again with the separated plasma. After completion of the reaction, erythrocytes and plasma were separated by centrifugation, and only the plasma was collected again. The plasma thus obtained was loaded with S1P in HDL (HDL-ApoM-S1P loading), which was illustrated in FIG. 1.
The plasma solution thus obtained was intravenously injected 25 μl into mice twice a week for 4 weeks (total 8 times) according to the experimental outline shown in FIG. 2. […]
In order to identify potential effects on learning and memory, Morris water maze (MWM) and fear conditioning experiments were performed according to known methods. […] All experiments were recorded using a charge-coupled device (CCD) camera with video monitor and computer. […]

[1] = S1P, ApoM, HDL-S1P and HDL-ApoM levels in plasma of APP/PS1 mice after HDL-ApoM-S1P loading; format: in vivo, mouse; settings: i.v. 25 μl twice a week for 4 weeks (8 times), vs untreated APP/PS1 mice
Description: as §1, §4
The plasma solution thus obtained was intravenously injected 25 μl into mice twice a week for 4 weeks (total 8 times) according to the experimental outline shown in FIG. 2. As a control group, 3 μM S1P (Avanti) and […] ApoM (Mybiosource, SEQ ID NO: 1) were injected intravenously with 25 μl in mice twice a week for 4 weeks (eight times in total).
To collect blood from mouse models (APP/PS1 tg mice or APP/PS1/ApoM tg mice) and normal control mice (WT), the mice were anesthetized first, and 500 μl to 700 μl of blood were collected in heparin tubes (BD Falcon) by cardiac drawing. Each blood sample was then centrifuged at 1,200 rpm for 5 minutes to separate plasma from the supernatant. This plasma sample was stored at −80° C. before being used for analysis.
60 μl of plasma sample was placed in the ultrafast centrifuge tube, and then the same amount of PBS (Gibco) solution was added to form a layer on the plasma. A high speed centrifuge (HITACHI cp100wx Centrifuge P70AT rotor) was used to centrifuge at 70,000 rpm for 3 hours at 4° C. 60 μl of the lower layer of the sample separated into two layers was transferred into a new ultra-centrifuge tube. […]
Extraction and quantification of S1P was performed in the following manner. […] The dried lipid extract was resuspended in 25 μl of 0.2% Igepal CA-630 (Sigma-Aldrich), and the concentration level of each lipid was quantified by the UPLC system using the column ACQUITY BEH Shield RP18 1.7 μm 2.1×50 mm (186002853) and 0.1% of NH4OH.
Using a commercial ELISA kit (CUSABIO Human ApoM ELISA Kit and Mouse ApoM ELISA Kit), the amount of apolipoprotein M (ApoM) contained in the mouse plasma or HDL fractionated therefrom was quantified according to the manufacturer's protocol. […]

microglia = assay: Activity of microglia (Iba1 staining), neuroinflammatory response; format: in vivo, mouse; settings: APP/PS1 mice, brain tissue, vs untreated APP/PS1 mice
Description: as §1, §2, §3

tau = assay: Tau deposition in brain tissue (AT8 immunofluorescence); format: in vivo, mouse; settings: APP/PS1 mice, cerebral cortex, vs 9-month-old untreated APP/PS1 mice
Description: as §1, §2, §3

AD patients = settings: cited from earlier work; for delaying cognitive decline compared to placebo: large-scale clinical trial, one year

SMILES: CCCCCCCCCCCCC/C=C/[C@@H](O)[C@@H](N)COP(=O)(O)O [S1P, Sphingosine-1-Phosphate]
- Aβ40 deposition in brain tissue (amyloid-β): did not show a significant difference
- Aβ42 deposition in brain tissue (amyloid-β): did not show a significant difference
- inflammatory activity of astrocytes (astrocytes): no significant difference
- learning and memory (spatial memory formation), MWM (APP/PS1 mice): severe impairment
- level of ApoM in plasma [1]: did not show a difference
- level of HDL-ApoM in the HDL fraction [1]: did not show a difference
- level of HDL-S1P in the HDL fraction [1]: did not show a difference
- level of S1P in plasma [1]: did not show a difference
- inflammatory activity of microglia (microglia): no significant difference
- tau deposition (AT8) in brain tissue (tau): did not show a significant difference

SMILES: O=C(O)Cc1ccccc1Nc1c(Cl)cccc1Cl [diclofenac]
- index of cognitive decline vs placebo (AD patients; mild to moderate AD patients, diclofenac in combination with misoprostol, after 25 weeks): no significant difference

SMILES: CCN(CCO)CCCC(C)Nc1ccnc2cc(Cl)ccc12 (centres unmarked) [hydroxychloroquine]
- preventing memory degradation (AD patients; 18-month experiment): no protective effect

SMILES: COc1ccc2cc([C@H](C)C(=O)O)ccc2c1 [naproxen]
- delaying cognitive decline compared to placebo (AD patients): not effective

SMILES: CS(=O)(=O)Nc1ccc([N+](=O)[O-])cc1Oc1ccccc1 [nimesulide]
- rate of cognitive change (AD patients; AD patients, small 24-week studies): no significant difference

SMILES: C[C@]12C=CC(=O)C=C1CC[C@@H]1[C@@H]2C(=O)C[C@@]2(C)[C@H]1CC[C@]2(O)C(=O)CO [prednisone]
- cognitive decline, treatment vs placebo groups (AD patients; low doses for one year): no difference

SMILES: CS(=O)(=O)c1ccc(C2=C(c3ccccc3)C(=O)OC2)cc1 [rofecoxib]
- delaying cognitive decline compared to placebo (AD patients): not effective
- efficacy in mild to moderate AD patients (AD patients; trial for 1 year): ineffective
